Values after ≈ are worked out from the molar mass of the structure shown. Like-named read-outs stand apart in the source and are kept apart here.
Experiments:
[1] = cited from earlier work
[2] = Goodman and Gillman's 10th ed; cited from earlier work
[3] = cited from earlier work; remark: listed apart in the source
[4] = Solubility in phosphate-buffered saline (pH 7.2) at room temperature (Example 18); settings: pH 7.2, aqueous buffer
[5] = Test article pharmacokinetics in rats after a single oral or intravenous dose; plasma acetaminophen by LC-MS/MS; type: in vivo, Sprague-Dawley rats; settings: for Acetaminophen exposure compared with administration of acetaminophen: equivalent acetaminophen doses, oral and intravenous
Description: Forty-eight (48) male and female Sprague-Dawley rats were assigned to eight dose groups consisting of three animals per test article per dose route per gender. There were four test articles including acetaminophen, obtained from Sigma-Aldrich, and three acetaminophen conjugates as set forth below.
The animals received a single dose (oral or intravenous) of the test articles via oral gavage or slow intravenous bolus. […] Cage-side observations were performed daily; body weights were recorded prior to each dosing day. Blood samples for pharmacokinetic (PK) analyses were collected at 5 minutes to 8 hr post-dose and acetaminophen plasma concentrations were measured via a LC-MS/MS method.
Non-compartmental pharmacokinetic analysis was conducted for mean plasma acetaminophen concentrations for each test article. Measures of acetaminophen exposure (e.g., AUClast) were typically greater in female animals than male animals for all test articles and for both the oral and intravenous routes of administration.

[6] = Hydrolysis and metabolism in human whole blood at 37° C. (appearance of acetaminophen); type: in vitro ADME; settings: human whole blood vs PBS
Description: (§1) Loss of deuterated acetaminophen (APAP-d4) was also monitored in order to account for compound losses due to the metabolism of acetaminophen. Stability of the test samples in PBS at 37° C. was also determined.
(§2) Five lots of human whole blood (lithium heparin) were purchased from Biochemed and stored refrigerated at +5° C.±3° C. until use. Five lots of SD Rat whole blood (lithium heparin) were purchased from Biochemed and stored refrigerated at +5° C.±3° C. until use. Phosphate-buffered saline was used as a control matrix; it was prepared in-house and stored refrigerated at +5° C.±3° C. until use. Test Articles were weighed immediately prior use.
(§3) Purity was taken into account for the stock preparation.
Whole blood was removed from storage and allowed to reach room temperature. It was pooled by species at this time. Once the pool reached room temperature, individual 1980 μL aliquots of the whole blood pool were added to the appropriate tubes on test. All tubes were pre-incubated at 37° C. in a water bath for 5 minutes.
The appropriate intermediate solution was added to each tube on test such that the final concentration of the test article in blood was 6.62 μM. The compound was assayed in triplicate at this concentration. Nominal O-minute samples were aliquoted into a 96-well plate as soon as spiking solution was added. […]

[7] = Hydrolysis and metabolism in rat whole blood at 37° C. (appearance of acetaminophen); type: in vitro ADME, SD Rat; settings: rat whole blood vs PBS
Description: as §1, §2, §3
(§4) Whole blood was removed from storage and allowed to reach room temperature. It was pooled by species at this time. Once the pool reached room temperature, individual 1,980 μL aliquots of the whole blood pool were added to the appropriate tubes on test. Individual 1,980 μL aliquots of blank phosphate buffered saline (PBS) were added to the appropriate tubes on test. All tubes were pre-incubated at 37° C. in a water bath for 5 minutes.
The appropriate intermediate solution was added to each tube on test such that the final concentration of the test article in blood was 6.62 μM. The compound was assayed in triplicate at this concentration. […]

[8] = Stability in PBS at 37° C. (control matrix); type: physicochemical; settings: out to four hours
Description: as §1, §2, §4
The appropriate intermediate solution was added to each tube on test such that the final concentration of the test article in blood was 6.62 μM. The compound was assayed in triplicate at this concentration. Nominal O-minute samples were aliquoted into a 96-well plate as soon as spiking solution was added. Just prior to a 150 μL sample transfer, 450 μL of acetonitrile:methanol (1:1) was placed in the individual receiving wells in order to stop conversion reactions. The plate containing “stopped” samples was held, covered, in a wet-ice bath until all remaining timepoints were aliquoted. All remaining spiked samples were incubated at 37° C. in a water bath throughout the sampling period. […] Just prior to each transfer, 450 μL, of acetonitrile:methanol (1:1) was placed in the receiving wells for those aliquots in order to stop conversion reactions.

[9] = Rat liver microsome-mediated metabolism (appearance of acetaminophen); type: in vitro ADME; settings: for Stability in buffer: phosphate buffer at 37° C. (rat microsome study)
Description: Loss of APAP-d4 was also monitored.
Lot 62548 consisting of ˜334 male rat livers and lot 59232 consisting of 10 female rat livers were pooled at a 1:1 ratio just before use. […] Compounds were weighed immediately prior to use. […] Purity was taken into account for the stock preparation.
Incubation wells were placed in a wet ice-bath.

[10] = Human liver microsome-mediated metabolism (appearance of acetaminophen); settings: for Stability in buffer: phosphate buffer at 37° C. (human microsome study)
Description: The appearance of acetaminophen (APAP) when Test Articles A, B or C are incubated in human liver microsomes at 37° C. was determined. Loss of APAP-d4 was also monitored.
One lot consisted of ˜150 human mixed gender liver microsomes was purchased from BD Biosciences and stored frozen at −80° C. until use. Compounds were weighed immediately prior use. Test Article A, Test Article B, and Test Article C were weighed on a microbalance and dissolved in water to generate individual stock solutions, each at a concentration of 3.31 mM. Purity was taken into account for each stock solution prepared. APAP-d4 was weighed on a microbalance and dissolved in water to generate a stock solution at a 3.31 mM concentration. Purity was taken into account for the stock preparation.
One part Test Articles A, B or C and one part APAP-d4 was added to three parts water to arrive at an intermediate solution consisting of 662 μM for each compound.
The intermediate solutions prepared above were added to phosphate buffer to arrive at solutions consisting of 8.827 μM of each compound; these were called Substrate solutions. Incubation wells were placed in a wet ice-bath. 750 μL of Substrate solution was added to the appropriate wells. […] 50 μL of Microsomal suspension (20 mg/mL) was added to the appropriate wells. […] Samples were pre-incubated by shaking at 37° C. for 5 minutes. Just prior to starting the reactions in the next step 80 μL aliquots were removed and “killed” with 200 μL of Stop solution; these were the 0 min samples.
Reactions for the remaining samples were started by adding 180 μL Cofactor Solution (5×) to the appropriate wells. […] A 20 μL aliquot of Cofactor Solution (5×) was added to the stopped 0 min samples. […] At 2.5, 5, 10, 30, 60, 120, and 240 minutes, 100 μL of the specified incubation sample was removed and “killed” with 200 μL of Stop Solution. Once all required samples were collected, the plate was centrifuged at 3000 rpm for 10 minutes to pellet the precipitated proteins, and the resultant supernatants were transferred to a fresh 96-well plate for extraction and analysis.
Samples were analyzed for acetaminophen and acetaminophen-d4 concentrations, using a method that employs HPLC and MS/MS detection.

[11] = Solubility testing, initial protocol (Example 17A), HPLC; type: physicochemical; settings: thermodynamic from solid, 18 ° C.
Description: 10-60 mg of Test Article A was weighed into a 1 mL micro centrifuge tube. 100 μL of solvent was added. Samples were mixed using a vortex mixer, and then sonicated for 15 minutes at ambient temperature. In the event of complete dissolution, more solute was added. The resultant suspensions were centrifuged to yield an off-white saturated solution. A small aliquot of the supernatant was diluted prior to analysis by HPLC.
(§5) A HPLC method was developed to quantify Test Article A concentration via external standard analysis, and also monitor and quantify the hydrolysis product APAP. Linearity was determined over the range 20 to 120 μg/mL, and reproducibility was determined at 100 μg/mL.

[12] = Solubility via modified protocol with water bath equilibration (Example 17B), HPLC; type: physicochemical
Description: 10-60 mg of Test Article A was weighed into a 1 mL micro centrifuge tube. 100 μL of solvent was added. Samples were mixed using a vortex mixer, and then sonicated for 15 minutes at ambient temperature. In the event of complete dissolution, more solute was added. The resultant suspensions were equilibrated in a water bath for 20 minutes and were centrifuged for 1 minute to yield an off-white saturated solution. The samples were then equilibrated a further 20 minutes in the water bath. 5-10 μL aliquots of the supernatant were diluted into 25 mL of mobile phase using volumetric flasks, prior to analysis by HPLC.
as §5

[13] = tested on: alkaline phosphatase; settings: with alkaline phosphatase; cited from earlier work
[14] = Anesthesia and Analgesia 101, 90-96, 2005
[15] = British Journal of Anaesthesia 94 (5): 642-648, 2005
[16] = with and without cofactor, compared with buffer, 37° C., up to 240 minutes

Row | Structure (SMILES) | Water solubility [1] | Local tolerance profile [3, 14] [%] | Local tolerance profile [3, 15] [%] | Acetaminophen exposure compared with administration of acetaminophen [5] | Conversion to APAP in blood incubations versus buffer incubations [6] | Conversion to APAP in blood incubations versus buffer incubations [7] | Stability in PBS [8] | Stability in buffer [9] | Stability in buffer [10] | solubility [4] [mg/mL] | also measured
1 | CC(=O)Nc1ccc(O)cc1 [Acetaminophen, N-(4-hydroxyphenyl)acetamide] | about 1.3 g per 100 mL | 0 | 52 |  |  |  |  |  |  |  | Half-life [2]: about 2 hours; solubility ([4]; phosphate-buffered saline): 13.1 mg/mL (≈ 86.7 mM)
2 | CCN(CC)CC(=O)Oc1ccc(NC(C)=O)cc1 [Propacetamol, 4-acetamidophenyl 2-(diethylamino)acetate] |  | 49 | 90 |  |  |  |  |  |  |  | 
3 | CC(=O)Nc1ccc(OC(=O)NCCS(=O)[O-])cc1.[Na+] [Test Article B, Sodium 2-((4-acetamidophenoxy)carbonylamino)ethanesulfinate] |  |  |  | substantially lower | nearly equivalent | nearly equivalent | not stable | not stable | not stable | 424 | 
4 | CC(=O)Nc1ccc(OC(=O)NCCS(=O)(=O)[O-])cc1.[Na+] [Test Article C, Sodium 2-((4-acetamidophenoxy)carbonylamino)ethanesulfonate, reference compound] |  |  |  | substantially lower | nearly equivalent | nearly equivalent | not stable | not stable | not stable | 492 | 
5 | CC(=O)Nc1ccc(OC(=O)SCCS(=O)(=O)[O-])cc1.[Na+] [Test Article A, Sodium 2-((4-acetamidophenoxy)carbonylthio)ethanesulfonate] |  |  |  | as great as, or greater than |  |  | rather stable | stable | stable |  | Time to maximum acetaminophen plasma concentration compared with Test Articles C and B ([5]; oral administration): longer time to maximum acetaminophen plasma concentrations; Conversion to acetaminophen in rat liver microsomes [9, 16]: at a level much greater than incubations with buffer; Conversion to acetaminophen in human liver microsomes [10, 16]: at a level greater than incubations with buffer; solubility at 15 min ([11]; aqueous buffer, PBS): 246 mg/mL; solubility at 15 min ([11]; aqueous with cosolvent or surfactant or cyclodextrin, 50% Water, Ethanol): 199 mg/mL; solubility at 15 min ([11]; organic solvent or mixture, Ethanol): 1 mg/mL; solubility at 15 min ([11]; Water, initial protocol): 280 mg/mL; solubility at 40 min ([12]; PEG-400, 19 °C, organic solvent or mixture, thermodynamic from solid): 103 mg/mL; solubility at 40 min ([12]; PEG-400/water (50% water), 19 °C, aqueous with cosolvent or surfactant or cyclodextrin, thermodynamic from solid): 306 mg/mL; solubility at 40 min ([12]; pH 5 buffer, 19 °C, pH 5, aqueous buffer, thermodynamic from solid): 226 mg/mL; solubility ([12]; pH 6.5 Buffer, 19 ° C.): 210 mg/mL; solubility at 40 min ([12]; pH 6.5 buffer, 19 °C, pH 6.5, aqueous buffer, thermodynamic from solid): 198 mg/mL; solubility at 40 min ([12]; pH 6.5 buffer, 35 °C, pH 6.5, aqueous buffer, thermodynamic from solid): 406 mg/mL; solubility at 40 min ([12]; pH 8 buffer, 19 °C, pH 8, aqueous buffer, thermodynamic from solid): 198 mg/mL; solubility at 40 min ([12]; propylene glycol, 19 °C, organic solvent or mixture, thermodynamic from solid): 69 mg/mL; solubility at 40 min ([12]; propylene glycol/water (50% water), 19 °C, aqueous with cosolvent or surfactant or cyclodextrin, thermodynamic from solid): 185 mg/mL; solubility ([12]; water, 0 °C, water, thermodynamic from solid, Water (in Fridge), 0 to 4 ° C., read-out: Solubility): 78 mg/mL; solubility at 40 min ([12]; water, 19 °C, thermodynamic from solid, Water Repeat, modified protocol): 230 mg/mL
6 | CC(=O)Nc1ccc(OP(=O)(O)O)cc1 [4-acetamidophenyl dihydrogen phosphate] | 50 g per 100 mL |  |  |  |  |  |  |  |  |  | Time required in vitro to yield acetaminophen from the derivative [13]: about 15 hours
